SMILES strings stand for the structures. pIC50: −log10 of the molar value.

In assay [1] the target is T1, human TLR9 (Homo sapiens, UniProt Q9NR96).
T1 construct: host or cells: HEK-Blue cells
T1 sequence (Q9NR96 26-1032): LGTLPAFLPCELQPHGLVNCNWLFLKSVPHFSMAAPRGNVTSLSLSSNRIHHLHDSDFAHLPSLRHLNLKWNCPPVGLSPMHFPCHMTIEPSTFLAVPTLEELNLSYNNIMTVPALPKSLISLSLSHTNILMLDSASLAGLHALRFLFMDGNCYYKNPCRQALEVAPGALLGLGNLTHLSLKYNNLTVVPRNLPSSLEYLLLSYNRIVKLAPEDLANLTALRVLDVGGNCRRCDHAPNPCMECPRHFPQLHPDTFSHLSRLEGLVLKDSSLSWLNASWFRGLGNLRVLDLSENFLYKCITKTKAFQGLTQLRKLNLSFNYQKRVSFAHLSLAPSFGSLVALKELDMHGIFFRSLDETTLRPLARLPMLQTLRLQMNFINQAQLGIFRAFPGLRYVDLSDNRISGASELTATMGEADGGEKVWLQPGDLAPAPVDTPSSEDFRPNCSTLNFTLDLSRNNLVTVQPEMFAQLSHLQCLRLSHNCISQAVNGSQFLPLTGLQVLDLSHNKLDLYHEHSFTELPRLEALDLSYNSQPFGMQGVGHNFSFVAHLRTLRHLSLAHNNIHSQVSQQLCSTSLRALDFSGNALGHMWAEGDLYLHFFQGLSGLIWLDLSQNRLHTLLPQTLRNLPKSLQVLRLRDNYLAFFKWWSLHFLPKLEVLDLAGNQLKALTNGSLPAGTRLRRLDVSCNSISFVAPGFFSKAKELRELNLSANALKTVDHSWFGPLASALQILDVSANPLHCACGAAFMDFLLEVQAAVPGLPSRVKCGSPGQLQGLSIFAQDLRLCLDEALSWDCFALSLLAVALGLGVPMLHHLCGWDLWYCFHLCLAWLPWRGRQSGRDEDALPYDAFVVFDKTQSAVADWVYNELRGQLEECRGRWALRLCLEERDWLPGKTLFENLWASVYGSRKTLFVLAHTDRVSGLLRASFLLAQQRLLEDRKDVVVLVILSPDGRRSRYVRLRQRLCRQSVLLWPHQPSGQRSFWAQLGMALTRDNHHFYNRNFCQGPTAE
Nature of the assay: TLR9 inhibition reporter assay (HEK-Blue cells, SEAP reporter, ODN2006 stimulation). It is filed as cell-based. The note with it: HEK-Blue cells overexpressing human TLR9, ODN2006 5 nM. The procedure, abridged:
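Human TLR7/8/9 HEK-Blue reporter lines; dose range 0.05 nM–50 μM; 30 min RT preincubation; stimulus gardiquimod 7.5 μM / R848 15.9 μM / ODN2006 5 nM respectively; 22 h, 37 °C; SEAP detected colorimetrically.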
In general terms: In a reporter assay the amount or activity of a reporter protein is the signal.

In assay [2] the target is T2, human TLR7 (Homo sapiens, UniProt Q9NYK1).
T2 construct: host or cells: HEK-Blue cells
T2 sequence (Q9NYK1 27-1049): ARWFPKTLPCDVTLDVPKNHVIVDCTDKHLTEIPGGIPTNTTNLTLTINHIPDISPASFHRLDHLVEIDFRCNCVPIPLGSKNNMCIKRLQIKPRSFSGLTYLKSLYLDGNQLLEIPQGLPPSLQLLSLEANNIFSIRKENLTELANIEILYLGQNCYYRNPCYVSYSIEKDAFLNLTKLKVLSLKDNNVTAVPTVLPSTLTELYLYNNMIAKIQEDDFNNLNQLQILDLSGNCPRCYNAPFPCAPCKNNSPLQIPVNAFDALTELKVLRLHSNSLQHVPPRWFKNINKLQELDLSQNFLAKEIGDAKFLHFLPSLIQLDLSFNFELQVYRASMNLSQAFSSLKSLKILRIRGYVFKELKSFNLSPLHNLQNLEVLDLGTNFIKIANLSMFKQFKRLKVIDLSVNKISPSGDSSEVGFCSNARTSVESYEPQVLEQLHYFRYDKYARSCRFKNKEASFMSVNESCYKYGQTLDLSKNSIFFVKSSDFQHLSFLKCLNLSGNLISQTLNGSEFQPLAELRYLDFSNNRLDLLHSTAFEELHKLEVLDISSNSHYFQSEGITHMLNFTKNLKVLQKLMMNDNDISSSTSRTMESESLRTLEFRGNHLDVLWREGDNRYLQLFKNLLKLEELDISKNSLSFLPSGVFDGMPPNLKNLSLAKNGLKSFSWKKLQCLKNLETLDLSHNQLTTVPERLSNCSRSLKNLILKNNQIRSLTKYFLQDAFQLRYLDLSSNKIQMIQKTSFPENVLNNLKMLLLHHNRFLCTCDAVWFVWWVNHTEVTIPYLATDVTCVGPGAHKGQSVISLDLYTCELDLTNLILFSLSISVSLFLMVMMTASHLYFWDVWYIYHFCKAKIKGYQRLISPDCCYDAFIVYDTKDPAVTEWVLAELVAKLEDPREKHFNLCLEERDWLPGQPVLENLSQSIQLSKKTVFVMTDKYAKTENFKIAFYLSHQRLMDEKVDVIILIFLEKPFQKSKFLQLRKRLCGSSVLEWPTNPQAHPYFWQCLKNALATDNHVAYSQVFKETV
The experiment in a line: TLR7 inhibition reporter assay (HEK-Blue cells, SEAP reporter, gardiquimod stimulation). To be noted: HEK-Blue cells overexpressing human TLR7, gardiquimod 7.5 μM. Type of assay: cell-based. The procedure, abridged: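 Cells (15000/well for TLR7, 20,000 for TLR8) were treated with compounds over 0.05 nM-50 μM final. After 22 h at 37° C, 5% CO2, SEAP was measured with HEK-Blue Detection reagent; percent inhibition was taken as reduction of agonist-plus-DMSO signal relative to a known inhibitor.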

Take `COc1ccc(-c2[nH]c3ccc(C4CCN(C(=O)CN5CCC[C@H](C(=O)N6CCN(C(C)C)CC6)C5)CC4)cc3c2C(C)C)cc1OC` [Example 286, (S)-1-(4-(2-(3,4-dimethoxyphenyl)-3-isopropyl-1H-indol-5-yl)piperidin-1-yl)-2-(3-(4-isopropylpiperazine-1-carbonyl)piperidin-1-yl)ethan-1-one]: the pIC50 (in general, the negative decadic logarithm of the IC50, by convention in mol/L) was 6.22 in assay [1] and 8.30 in assay [2].
For `COc1ccc(-c2[nH]c3ccc(C4CCN(C(=O)CN5CCC[C@H](C(=O)N6CCCC6)C5)CC4)cc3c2C(C)C)cc1OC` [Example 287, (S)-1-(4-(2-(3,4-dimethoxyphenyl)-3-isopropyl-1H-indol-5-yl)piperidin-1-yl)-2-(3-(pyrrolidine-1-carbonyl)piperidin-1-yl)ethan-1-one], the pIC50 is 5.64 in assay [1] and 7.42 in assay [2].
The corresponding values for `COc1ccc(-c2[nH]c3ccc(C4CCN(C(=O)CN5CCC[C@H](C(=O)N(C)C(C)C)C5)CC4)cc3c2C(C)C)cc1OC` [Example 288, (S)-1-(2-(4-(2-(3,4-dimethoxyphenyl)-3-isopropyl-1H-indol-5-yl)piperidin-1-yl)-2-oxoethyl)-N-isopropyl-N-methylpiperidine-3-carboxamide] are 6.20 and 7.36.
Turning to `COc1ccc(-c2[nH]c3ccc(C4CCN(C(=O)CN5CCC[C@H](C(=O)N6CCC(N(C)C)CC6)C5)CC4)cc3c2C(C)C)cc1OC` [Example 289, (S)-1-(4-(2-(3,4-dimethoxyphenyl)-3-isopropyl-1H-indol-5-yl)piperidin-1-yl)-2-(3-(4-(dimethylamino)piperidine-1-carbonyl)piperidin-1-yl)ethan-1-one], the pIC50 is 6.30 in assay [1] and 7.89 in assay [2].
As for `COc1ccc(-c2[nH]c3ccc(C4CCN(C(=O)CN5CCC[C@H](C(=O)N6CCN(c7cccc(C(F)(F)F)c7)CC6)C5)CC4)cc3c2C(C)C)cc1OC` [Example 290, (S)-1-(4-(2-(3,4-dimethoxyphenyl)-3-isopropyl-1H-indol-5-yl)piperidin-1-yl)-2-(3-(4-(3-(trifluoromethyl)phenyl)piperazine-1-carbonyl)piperidin-1-yl)ethan-1-one], the results for the pIC50 in assay [1] and in assay [2] were 5.27 and 5.76, respectively.
For the molecule `COc1ccc(-c2[nH]c3ccc(C4CCN(C(=O)CN5CCC[C@H](C(=O)N6CCC(CCO)CC6)C5)CC4)cc3c2C(C)C)cc1OC` [Example 291, (S)-1-(4-(2-(3,4-dimethoxyphenyl)-3-isopropyl-1H-indol-5-yl)piperidin-1-yl)-2-(3-(4-(2-hydroxyethyl)piperidine-1-carbonyl)piperidin-1-yl)ethan-1-one], the negative-log IC50 (pIC50) is 5.64 in assay [1] and 7.44 in assay [2].
The corresponding values for `COc1ccc(-c2[nH]c3ccc(C4CCN(C(=O)CN5CCC[C@H](C(=O)N6CCCC(O)C6)C5)CC4)cc3c2C(C)C)cc1OC` (stereo partly drawn) [Example 292, 1-(4-(2-(3,4-dimethoxyphenyl)-3-isopropyl-1H-indol-5-yl)piperidin-1-yl)-2-((3S)-3-(3-hydroxypiperidine-1-carbonyl)piperidin-1-yl)ethan-1-one] are 5.74 and 7.66.
On the same counts, the results for `COc1ccc(-c2[nH]c3ccc(C4CCN(C(=O)CN5CCC[C@H](C(=O)N6CCN(CCN7CCCC7)CC6)C5)CC4)cc3c2C(C)C)cc1OC` [Example 293, (S)-1-(4-(2-(3,4-dimethoxyphenyl)-3-isopropyl-1H-indol-5-yl)piperidin-1-yl)-2-(3-(4-(2-(pyrrolidin-1-yl)ethyl)piperazine-1-carbonyl)piperidin-1-yl)ethan-1-one] are 6.11 and 7.55.
On the same counts, the results for `COc1ccc(-c2[nH]c3ccc(C4CCN(C(=O)CN5CCC[C@H](C(=O)N6CCN(Cc7ccc(Br)cc7)CC6)C5)CC4)cc3c2C(C)C)cc1OC` [Example 294, (S)-2-(3-(4-(4-bromobenzyl)piperazine-1-carbonyl)piperidin-1-yl)-1-(4-(2-(3,4-dimethoxyphenyl)-3-isopropyl-1H-indol-5-yl)piperidin-1-yl)ethan-1-one] are 5.65 and 5.92.
Turning to `COc1ccc(-c2[nH]c3ccc(C4CCN(C(=O)CN5CCC[C@H](C(=O)NCCNC(C)=O)C5)CC4)cc3c2C(C)C)cc1OC` [Example 295, (S)—N-(2-acetamidoethyl)-1-(2-(4-(2-(3,4-dimethoxyphenyl)-3-isopropyl-1H-indol-5-yl)piperidin-1-yl)-2-oxoethyl) piperidine-3-carboxamide], the results for the pIC50 in assay [1] and in assay [2] were 5.27 and 7.30, respectively.
On the same counts, the results for `COc1ccc(-c2[nH]c3ccc(C4CCN(C(=O)CN5CCC[C@H](C(=O)NC6(CO)CCCC6)C5)CC4)cc3c2C(C)C)cc1OC` [Example 296, (S)-1-(2-(4-(2-(3,4-dimethoxyphenyl)-3-isopropyl-1H-indol-5-yl)piperidin-1-yl)-2-oxoethyl)-N-(1-(hydroxymethyl)cyclopentyl)piperidine-3-carboxamide] are 5.52 and 7.46.
The corresponding values for `COc1ccc(-c2[nH]c3ccc(C4CCN(C(=O)CN5CCC[C@H](C(=O)NCC#N)C5)CC4)cc3c2C(C)C)cc1OC` [Example 297, (S)—N-(cyanomethyl)-1-(2-(4-(2-(3,4-dimethoxyphenyl)-3-isopropyl-1H-indol-5-yl)piperidin-1-yl)-2-oxoethyl)piperidine-3-carboxamide] are 5.52 and 7.32.
The corresponding values for `COc1ccc(-c2[nH]c3ccc(C4CCN(C(=O)CN5CCC[C@H](C(=O)NCC(N)=O)C5)CC4)cc3c2C(C)C)cc1OC` [Example 298, (S)—N-(2-amino-2-oxoethyl)-1-(2-(4-(2-(3,4-dimethoxyphenyl)-3-isopropyl-1H-indol-5-yl)piperidin-1-yl)-2-oxoethyl)piperidine-3-carboxamide] are 5.40 and 7.33.
With `COc1ccc(-c2[nH]c3ccc(C4CCN(C(=O)CN5CCC[C@H](C(=O)N6CC7CNCC7C6)C5)CC4)cc3c2C(C)C)cc1OC` (stereo partly shown) [Example 299, 1-(4-(2-(3,4-dimethoxyphenyl)-3-isopropyl-1H-indol-5-yl)piperidin-1-yl)-2-((3 S)-3-(octahydropyrrolo[3,4-c]pyrrole-2-carbonyl)piperidin-1-yl)ethan-1-one], the negative-log IC50 (pIC50) in assay [1] was 5.16; in assay [2], 6.69.
